These results are taken from ChEMBL document CHEMBL4138139, “Discovery of VU6005649, a CNS Penetrant mGlu7/8 Receptor PAM Derived from a Series of Pyrazolo[1,5-a]pyrimidines” (ACS Med Chem Lett, 2017).

For data set [1], the target named is T1, Metabotropic glutamate receptor 4 (Homo sapiens, UniProt Q14833). Description: Negative allosteric modulation of human mGlu4 receptor expressed in CHO cells co-expressing Gqi5 harboring GIRK channel assessed as decrease in glutamate-induced thallium flux incubated for 142 secs followed by glutamate addition measured after 120 secs by Fluo4-AM dye based fluorescence assay. Format: functional, cell-based.
T1 sequence (Q14833 whole entry): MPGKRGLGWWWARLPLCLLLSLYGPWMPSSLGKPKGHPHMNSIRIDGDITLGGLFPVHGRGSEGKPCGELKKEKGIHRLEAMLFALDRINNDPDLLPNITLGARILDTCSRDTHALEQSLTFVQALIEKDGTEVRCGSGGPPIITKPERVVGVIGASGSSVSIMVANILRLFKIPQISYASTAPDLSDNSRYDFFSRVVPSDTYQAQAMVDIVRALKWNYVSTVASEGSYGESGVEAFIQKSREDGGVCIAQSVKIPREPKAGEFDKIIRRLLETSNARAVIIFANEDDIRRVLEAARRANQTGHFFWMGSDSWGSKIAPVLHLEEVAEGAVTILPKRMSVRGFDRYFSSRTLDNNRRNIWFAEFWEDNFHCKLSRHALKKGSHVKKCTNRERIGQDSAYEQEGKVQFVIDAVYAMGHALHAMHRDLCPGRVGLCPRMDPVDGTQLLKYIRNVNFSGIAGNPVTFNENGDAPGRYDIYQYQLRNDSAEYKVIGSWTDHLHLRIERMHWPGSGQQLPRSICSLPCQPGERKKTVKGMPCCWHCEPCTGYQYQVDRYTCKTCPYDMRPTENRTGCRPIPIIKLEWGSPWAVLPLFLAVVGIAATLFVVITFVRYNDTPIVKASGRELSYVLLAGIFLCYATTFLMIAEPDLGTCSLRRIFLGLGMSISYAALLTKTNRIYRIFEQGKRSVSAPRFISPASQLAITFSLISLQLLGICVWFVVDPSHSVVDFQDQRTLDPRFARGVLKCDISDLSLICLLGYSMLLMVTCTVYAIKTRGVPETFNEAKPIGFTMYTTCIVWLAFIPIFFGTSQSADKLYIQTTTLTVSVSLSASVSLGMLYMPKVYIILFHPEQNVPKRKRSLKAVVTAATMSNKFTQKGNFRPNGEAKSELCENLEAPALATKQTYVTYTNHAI

Data set [2] deals with T2, Metabotropic glutamate receptor 8 (Rattus norvegicus, UniProt P70579). Kind of data set: Negative allosteric modulation of rat mGlu8 receptor expressed in HEK cells co-expressing Galphai5 assessed as decrease in glutamate-induced thallium flux incubated for 142 secs followed by glutamate addition measured after 120 secs by Fluo4-AM dye based fluorescence assay. Format: functional, cell-based.
T2 sequence (P70579 whole entry): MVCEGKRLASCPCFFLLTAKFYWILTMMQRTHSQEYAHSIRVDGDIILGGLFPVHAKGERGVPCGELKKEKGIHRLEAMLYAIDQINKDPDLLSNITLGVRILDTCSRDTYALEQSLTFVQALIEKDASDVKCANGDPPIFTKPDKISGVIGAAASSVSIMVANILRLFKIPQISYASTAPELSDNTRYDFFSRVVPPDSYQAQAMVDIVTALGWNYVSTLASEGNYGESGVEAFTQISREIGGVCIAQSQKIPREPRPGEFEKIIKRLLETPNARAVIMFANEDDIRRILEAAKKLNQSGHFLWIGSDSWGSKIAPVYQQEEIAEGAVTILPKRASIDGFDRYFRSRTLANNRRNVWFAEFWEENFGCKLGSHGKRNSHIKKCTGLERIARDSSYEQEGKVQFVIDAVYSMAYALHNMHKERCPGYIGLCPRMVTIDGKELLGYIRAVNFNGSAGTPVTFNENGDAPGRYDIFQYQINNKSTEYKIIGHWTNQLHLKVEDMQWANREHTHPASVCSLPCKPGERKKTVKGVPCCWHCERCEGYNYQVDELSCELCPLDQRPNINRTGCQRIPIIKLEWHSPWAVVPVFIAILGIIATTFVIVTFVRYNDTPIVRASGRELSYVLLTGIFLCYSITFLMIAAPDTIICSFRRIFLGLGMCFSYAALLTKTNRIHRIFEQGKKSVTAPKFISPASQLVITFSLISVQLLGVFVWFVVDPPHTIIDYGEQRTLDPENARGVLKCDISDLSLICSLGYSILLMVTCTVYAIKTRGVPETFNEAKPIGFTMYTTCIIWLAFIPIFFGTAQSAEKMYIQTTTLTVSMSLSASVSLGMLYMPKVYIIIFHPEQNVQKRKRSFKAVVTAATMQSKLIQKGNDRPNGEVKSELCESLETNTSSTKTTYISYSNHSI

The target of data set [3] is T3, Metabotropic glutamate receptor 7 (Rattus norvegicus, UniProt P35400). Kind of data set: Negative allosteric modulation of rat mGlu7 receptor expressed in HEK cells co-expressing Galphai5 assessed as decrease in glutamate-induced thallium flux incubated for 142 secs followed by glutamate addition measured after 120 secs by Fluo4-AM dye based fluorescence assay. Format: functional, cell-based.
T3 sequence (P35400 whole entry): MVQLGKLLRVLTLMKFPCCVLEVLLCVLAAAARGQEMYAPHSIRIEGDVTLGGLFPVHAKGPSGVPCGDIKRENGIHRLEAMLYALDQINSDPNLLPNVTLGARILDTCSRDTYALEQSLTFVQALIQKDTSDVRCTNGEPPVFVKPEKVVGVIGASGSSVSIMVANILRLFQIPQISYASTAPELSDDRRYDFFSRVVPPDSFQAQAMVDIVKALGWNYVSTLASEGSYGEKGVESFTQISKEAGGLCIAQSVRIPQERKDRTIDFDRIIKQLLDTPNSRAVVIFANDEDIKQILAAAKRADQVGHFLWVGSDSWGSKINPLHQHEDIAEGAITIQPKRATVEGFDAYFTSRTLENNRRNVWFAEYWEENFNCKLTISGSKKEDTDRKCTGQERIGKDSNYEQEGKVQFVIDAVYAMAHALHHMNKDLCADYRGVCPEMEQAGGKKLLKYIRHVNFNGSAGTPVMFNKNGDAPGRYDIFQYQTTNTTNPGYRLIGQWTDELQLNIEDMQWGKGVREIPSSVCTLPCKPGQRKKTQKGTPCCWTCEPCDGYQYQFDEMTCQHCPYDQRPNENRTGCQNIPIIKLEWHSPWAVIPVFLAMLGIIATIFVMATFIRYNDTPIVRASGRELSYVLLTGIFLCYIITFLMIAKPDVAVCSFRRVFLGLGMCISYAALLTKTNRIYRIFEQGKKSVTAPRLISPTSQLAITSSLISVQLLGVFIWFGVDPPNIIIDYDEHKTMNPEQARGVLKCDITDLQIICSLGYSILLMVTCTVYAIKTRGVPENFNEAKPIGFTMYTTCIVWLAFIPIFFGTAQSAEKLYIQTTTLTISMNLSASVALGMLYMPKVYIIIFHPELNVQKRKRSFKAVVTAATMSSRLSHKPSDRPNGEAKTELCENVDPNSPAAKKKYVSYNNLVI

A short description of data set [4]: Unbound brain to plasma concentration ratio in Sprague-Dawley rat at 0.2 to […], iv administered as cassette dose measured at […] post dose by LC-MS/MS analysis. Format: ADME, organism-based. To be noted: brain and plasma, read-out: K(p,uu,brain).
Data set [5] can be described thus: Brain to plasma partition coefficient, Kp of the compound in Sprague-Dawley rat at 0.2 to […], iv administered as cassette dose measured at […] post dose by LC-MS/MS analysis. The class given is ADME, organism-based. The note with it: brain and plasma.
In the next data set the target is Cytochrome P450 3A4 (Homo sapiens, UniProt P08684). Kind of data set: Inhibition of CYP3A4 in human liver microsomes using midazolam as substrate preincubated for 15 mins followed by NADPH addition measured after 8 mins by LC-MS/MS analysis. The class given is ADME. On the technique in general: Liver microsomes are vesicles of endoplasmic reticulum, rich in cytochrome P450 enzymes.
Cytochrome P450 3A4, sequence (P08684 whole entry): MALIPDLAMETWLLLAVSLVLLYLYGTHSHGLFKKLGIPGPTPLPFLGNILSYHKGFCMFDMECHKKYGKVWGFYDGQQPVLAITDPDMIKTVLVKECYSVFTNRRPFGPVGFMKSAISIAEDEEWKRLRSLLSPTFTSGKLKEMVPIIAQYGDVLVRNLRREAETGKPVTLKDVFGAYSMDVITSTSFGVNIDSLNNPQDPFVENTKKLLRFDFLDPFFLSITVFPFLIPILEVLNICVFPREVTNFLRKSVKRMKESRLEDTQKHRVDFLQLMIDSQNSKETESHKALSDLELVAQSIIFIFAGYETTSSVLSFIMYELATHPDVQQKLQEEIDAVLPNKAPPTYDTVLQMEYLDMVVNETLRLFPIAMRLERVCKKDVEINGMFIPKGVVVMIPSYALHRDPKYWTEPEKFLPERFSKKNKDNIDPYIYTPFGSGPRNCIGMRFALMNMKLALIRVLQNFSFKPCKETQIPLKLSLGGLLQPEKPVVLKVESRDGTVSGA

The target in another data set is T4, Cytochrome P450 1A2 (Homo sapiens, UniProt P05177).
T4 sequence (P05177 whole entry): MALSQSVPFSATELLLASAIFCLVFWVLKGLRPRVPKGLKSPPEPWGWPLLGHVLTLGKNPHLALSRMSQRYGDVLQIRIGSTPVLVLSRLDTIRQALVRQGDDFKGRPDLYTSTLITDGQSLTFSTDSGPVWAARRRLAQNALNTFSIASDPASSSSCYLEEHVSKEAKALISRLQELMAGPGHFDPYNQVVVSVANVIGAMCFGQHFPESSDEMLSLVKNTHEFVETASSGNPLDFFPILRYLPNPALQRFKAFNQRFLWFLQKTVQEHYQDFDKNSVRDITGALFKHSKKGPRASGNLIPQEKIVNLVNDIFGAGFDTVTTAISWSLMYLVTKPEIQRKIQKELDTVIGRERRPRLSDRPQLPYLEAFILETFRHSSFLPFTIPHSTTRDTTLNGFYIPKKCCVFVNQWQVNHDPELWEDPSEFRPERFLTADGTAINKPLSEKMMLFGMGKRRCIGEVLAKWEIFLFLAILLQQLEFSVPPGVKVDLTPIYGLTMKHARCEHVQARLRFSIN
Description: Inhibition of CYP1A2 in human liver microsomes using phenacetin as substrate preincubated for 15 mins followed by NADPH addition measured after 8 mins by LC-MS/MS analysis. Format: ADME.

The next data set concerns the target Cytochrome P450 2C9 (Homo sapiens, UniProt P11712). Description: Inhibition of CYP2C9 in human liver microsomes using diclofenac as substrate preincubated for 15 mins followed by NADPH addition measured after 8 mins by LC-MS/MS analysis. Format: ADME.
A further data set deals with Cytochrome P450 2D6 (Homo sapiens, UniProt P10635). Kind of data set: Inhibition of CYP2D6 in human liver microsomes using dextromethorphan as substrate preincubated for 15 mins followed by NADPH addition measured after 8 mins by LC-MS/MS analysis. Format: ADME.
Cytochrome P450 2D6, sequence (P10635 whole entry): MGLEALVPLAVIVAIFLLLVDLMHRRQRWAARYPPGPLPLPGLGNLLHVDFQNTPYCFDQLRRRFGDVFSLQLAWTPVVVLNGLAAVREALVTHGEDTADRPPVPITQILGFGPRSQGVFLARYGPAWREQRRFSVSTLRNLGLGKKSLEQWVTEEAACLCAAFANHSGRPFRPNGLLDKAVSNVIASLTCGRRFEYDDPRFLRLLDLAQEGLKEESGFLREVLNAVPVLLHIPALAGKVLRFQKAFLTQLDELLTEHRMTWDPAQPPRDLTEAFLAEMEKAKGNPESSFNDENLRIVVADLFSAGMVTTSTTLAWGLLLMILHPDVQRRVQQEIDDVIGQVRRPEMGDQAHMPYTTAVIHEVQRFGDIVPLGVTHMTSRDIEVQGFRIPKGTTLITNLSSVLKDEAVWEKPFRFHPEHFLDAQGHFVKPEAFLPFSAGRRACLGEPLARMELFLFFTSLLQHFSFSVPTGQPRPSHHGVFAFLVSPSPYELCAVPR
The target in data set [6] is T1, Metabotropic glutamate receptor 4. Kind of data set: Positive allosteric modulation of human mGlu4 receptor expressed in CHO cells co-expressing Gqi5 assessed as increase in glutamate-induced calcium mobilization incubated for 142 secs followed by glutamate addition measured after 120 secs by Fluo4-AM dye based fluorescence assay. The class given is functional, cell-based. For orientation: A change in cytosolic calcium serves as a functional read-out for many receptors and channels.

The target in data set [7] is T3, Metabotropic glutamate receptor 7. Kind of data set: Positive allosteric modulation of rat mGlu7 receptor expressed in HEK cells co-expressing Galphai5 assessed as increase in glutamate-induced calcium flux incubated for 142 secs followed by glutamate addition measured after 120 secs by Fluo4-AM dye based fluorescence assay. The class given is functional, cell-based.

Data set [8] has as its target T2, Metabotropic glutamate receptor 8. Description: Positive allosteric modulation of rat mGlu8 receptor expressed in HEK cells co-expressing Galphai5 assessed as increase in glutamate-induced calcium flux incubated for 142 secs followed by glutamate addition measured after 120 secs by Fluo4-AM dye based fluorescence assay. Format: functional, cell-based.

For orientation: IC50 means the concentration that inhibits the measured activity by half. As usually defined, the Kp is tissue or fluid exposure divided by exposure in the circulation. In general, EC50 refers to the concentration giving half of the maximal effect.

Cytochrome P450 2C9, sequence (P11712 whole entry): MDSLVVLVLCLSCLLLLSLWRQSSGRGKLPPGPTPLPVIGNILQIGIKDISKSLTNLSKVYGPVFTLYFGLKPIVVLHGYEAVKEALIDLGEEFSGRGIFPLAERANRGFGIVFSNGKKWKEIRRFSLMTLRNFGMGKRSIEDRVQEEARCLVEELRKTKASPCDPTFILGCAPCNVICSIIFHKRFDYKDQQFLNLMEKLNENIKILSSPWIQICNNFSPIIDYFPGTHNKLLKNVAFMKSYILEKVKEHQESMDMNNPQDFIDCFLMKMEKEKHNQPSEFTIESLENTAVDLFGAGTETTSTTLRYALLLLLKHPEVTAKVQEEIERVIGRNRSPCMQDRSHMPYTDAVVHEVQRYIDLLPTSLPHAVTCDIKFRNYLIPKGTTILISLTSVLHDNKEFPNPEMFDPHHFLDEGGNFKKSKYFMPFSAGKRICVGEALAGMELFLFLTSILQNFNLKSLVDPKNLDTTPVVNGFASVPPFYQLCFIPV

As to `CCc1nc2c(o1)CC(c1ccc(C)cc1C)CC2=O` (configuration not stated), the IC50 in data set [1] is > 10 µM; in [2], > 10 µM; in data set [3], 0.65 µM.
On to `Cc1cc(C(F)(F)F)n2nc(C)c(-c3ccc(OC(F)F)cc3)c2n1`, for which the Kp uu at […] in [4] turned out to be 0.8. For the same compound, in [5], the Kp at […] came to 1.5.
Turning to `COc1ccc(-c2c(C)nn3c(C(F)(F)F)cc(C)nc23)cc1`, the IC50 on Cytochrome P450 3A4 was > 30 µM; against Cytochrome P450 1A2 it was 0.69 µM; at Cytochrome P450 2C9, > 30 µM; at Cytochrome P450 2D6, > 30 µM. For the same compound, the concentration ratio (Kp) at […] in data set [5] turned out to be 1.4.
Take `COc1ccc(-c2c(C)nn3c(C(F)(F)F)cc(C)nc23)cc1F`: the IC50 against Cytochrome P450 3A4 was > 30 µM; at Cytochrome P450 1A2, 0.33 µM; against Cytochrome P450 2C9, 27 µM; on Cytochrome P450 2D6, > 30 µM. For the same compound, the Kp at […] in [5] was determined as 4.3.
Regarding `COC(=O)c1ccc(-n2c(C)cc(C(=O)CSc3ccc(NC(C)=O)cc3)c2C)cc1`, the half-maximal effective concentration (EC50) in data set [6] turned out to be 3.2 µM; in data set [7], 1.5 µM; in data set [8] it was 0.9 µM.
As for `COc1ccc(-c2c(C)nn3c(C(F)(F)F)cc(C)nc23)cc1Cl`, the Kp uu at […] in [4] was found to be 1.7. The compound also displayed a Kp at […] in [5] of 4.8.
With `COc1cc(F)c(-c2c(C)nn3c(C(F)(F)F)cc(C)nc23)c(F)c1`, the 50% inhibitory concentration (IC50) on Cytochrome P450 3A4 is > 30 µM; at Cytochrome P450 1A2 it was 8.67 µM; on Cytochrome P450 2C9, > 30 µM; at Cytochrome P450 2D6 it was > 30 µM. In data set [5], the partition ratio (Kp) at […] came out at 2.2.
With `COc1cc(F)c(-c2c(C)nn3c(C(F)(F)F)cc(C)nc23)cc1F`, the IC50 is > 30 µM against Cytochrome P450 3A4, 2.93 µM against Cytochrome P450 1A2, > 30 µM at Cytochrome P450 2C9 and > 30 µM on Cytochrome P450 2D6. This compound yielded a concentration ratio (Kp) at […] in data set [5] of 2.7.
Consider `COc1ccc(-c2c(C)nn3c(C(F)(F)F)cc(C)nc23)c(F)c1`, for which the Kp uu at […] in [4] was 0.9. Besides, the partition ratio (Kp) at […] in [5] is 1.4.
